Measurements published in ChEMBL document CHEMBL4043251, “Synthesis of conjugates between oxazolidinone antibiotics and a pyochelin analogue” (Bioorg Med Chem Lett, 2017).
Active and inactive are the calls of the source. The rule behind the calls is not given here.

What was measured:
Pseudomonas aeruginosa = experiment: Antibacterial activity against Pseudomonas aeruginosa PAO1 by disc diffusion method; type: functional
[1] = Solubility of the compound in physiological medium; type: physicochemical
[2] = Solubility of the compound in aqueous medium; type: physicochemical; details: buffer

solubility [1]	solubility [2]	Structure (SMILES)	Activity (Pseudomonas aeruginosa)
Insoluble	Insoluble	CC(=O)NC[C@H]1CN(c2ccc(N3CCN(C(=O)OCCOCCOCC(=O)NCCCN4C([C@H]5CSC(c6ccccc6O)=N5)SC[C@H]4C(=O)O)CC3)c(F)c2)C(=O)O1 (stereo partly drawn)	inactive
Insoluble	Insoluble	CC(=O)NC[C@H]1CN(c2ccc(N3CCN(C(=O)CNC(=O)OCCOCCOCC(=O)NCCCN4C([C@H]5CSC(c6ccccc6O)=N5)SC[C@H]4C(=O)O)CC3)c(F)c2)C(=O)O1 (stereo partly drawn)	inactive
Insoluble	–	CC(=O)NC[C@H]1CN(c2ccc(N3CCN(C(=O)CCC(=O)NCCCN4C([C@H]5CSC(c6ccccc6O)=N5)SC[C@H]4C(=O)O)CC3)c(F)c2)C(=O)O1 (stereo partly drawn)	inactive
